These results are taken from patent publication US7074925B1, “N-substituted derivatives of 5-oxyiminobarbituric acid” (priority 1998, dated 2006).

Converted amounts (≈) assume the structure as drawn.

Data set [1] in a line: Analgesic activity, tail withdrawal from radiant heat. It is filed as in vivo, mice. As to the method:
The time needed to draw back a tail placed under a directed source of radiant heat was estimated in a group of 3 mice. Prolongation of the response time by more than 50% after intraperitoneal dosing a substance (30 mg/kg) indicated analgesic activity. Morphine sulfate (2 mg/kg) was utilized as a reference agent.

A further data set has as its system C.trachomatis D323. Kind of data set: Action on Chlamydia trachomatis in cell culture. The format is cell-based. To be noted: 100 mg/l. As for the experimental part: The antimicrobial activity of the claimed compounds was studied relative to C.trachomatis […], which is a standard strain from the collection of the chair of microbiology of St. Petersburg State Pavlov Medical University. […] Cell cultures McCoy and L929 obtained from the Institute of Cytology of RAS were used in this work. Cells were grown in flasks made of neutral glass in the medium RPMI-1640 with the addition of 10% of fetal calf serum. The test was performed in glass (non-toxic) flat-bottom flasks with cover glasses. The cells were introduced into the medium in the final concentration of […]. […] Simultaneously, tested compounds in a final concentration of 100 mg/l were added to the cells. The sample was centrifuged at 2400 G during 60 minutes at room temperature and incubated at 37° C. for 2 hours. […] The samples were doubled using the medium without cycloheximide so as to exclude its effect on the investigated compounds. The samples were incubated in a CO2-incubator for 48 hours. […] The effect of the action of substance was determined by analysis of the monolayer state and number of cells with CPI when compared with the control (cell culture infected with C.trachomatis […]); in doing so, the number of unchanged cells, that were counted in 100 visual fields obtained using the special net of the microscope eyepiece, was taken into consideration. […] Control of cell culture: morphology of cells and state of monolayer correspond to the given type of the cells; control of chlamydia growth in the cell culture: presence of CPI in the monolayer; control of action of standard antimicrobial agent: reduction of number of CPI in the monolayer as compared to the previous control; control of toxicity of the claimed compounds: toxicity is absent; control of action of solvents: toxic action on cells is absent.

Data set [2] is described as follows: Psychostimulating activity, symptom score. It is filed as in vivo, mice. The settings on record: tested substances perorally 300 mg/kg, one hour after; maximum 30 points, more than 12 significant.
The test system of data set [3] is primary culture of human lymphocytes (IFN-α production). Kind of data set: Interferon-inducing activity in primary culture of human lymphocytes. The format is cell-based.
The subject of data set [4] is Human's platelet aggregation. Put plainly: Antiaggregational properties, ADP-induced platelet aggregation. The format is cell-based. To be noted: 100 μg/ml, ADP […], platelet-enriched human plasma. The source says: Human's platelet aggregation was investigated in plasma of healthy 50±3 years donors that was enriched by thrombocytes, by means of aggregometer FRM-1. […] Magnitude of a maximum non-reversible platelet aggregation in the control samples (solvent) was adopted as 100%, and that in tested samples was counted as the percentage compared to the control.

Data set [5] can be described thus: Determination of maximal tolerable dose. The format is in vivo. To be noted: oral administration, mice, observed 72 hours; 300 was the maximally utilized one. As to the method:
Tested substance was introduced perorally (in dose of 300 mg/kg) through a gastric tube or intraperitoneally (in dose of 100 mg/kg) to no-breed white mice with mass 18-20 g (each tested group consisted of 3 males and 3 females). Then the mouse state was observed during 72 hours. Absence of symptoms characteristic of toxic effects, or absence of animal death during the given time allows to make a conclusion that the toxicity of the test substance is low. If acute toxicity effects are observed, the dose is reduced to find maximal tolerable dose.

A short description of data set [6]: Antioxidant action, riboflavine chemiluminescence. It is filed as biochemical. To be noted: solvent water, phosphate buffer pH 9.1. The source says: To assess a general antioxidant activity the method of riboflavine chemiluminescence was used. The test substance was introduced into a system consisted of phosphate buffer (pH 9.1), solution of riboflavine, and solution of bivalent iron sulfate. Chemiluminescence was initiated by 0.1% solution of hydrogen peroxide and registered by means of luminometer. […] Ascorbic acid was used as a reference agent.

Data set [7] deals with Herpes virus of the type I (HSV-I/Leningrad/248/88). Kind of data set: Effect on Herpes virus, cytopathogenic action on Vero cells. It is filed as cell-based, Herpes Simplex virus. To be noted: compound 100 μg/ml. A general note: Cytopathic effects are the visible damage that an infection or toxin causes in cultured cells.

Take `Cc1ccccc1N1C(=O)C(=NO)C(=O)NC1=S` [XLII]: in data set [1] (before intraperitoneal 30 mg/kg), the “Latent period of response, before dosing” value stood at 7.8. For the same molecule, the “Latent period of response, 30 minutes after dosing” value in data set [1] (intraperitoneal 30 mg/kg) is listed as 11.3. Besides, the “percentage of cell protection from infection” value in the data set with C.trachomatis D323 is given as “(60%)”. Besides, in the data set on C.trachomatis D323 (48 hours, counted in 100 visual fields, cell control 8.000, infected cells 6.000), the “Number of unchanged cells” value is 7.200. Also, the “Number of points (psychostimulation)” value in data set [2] is given as 15. In addition, the “Content of IFN in induction mixture after 24-hour incubation” value in data set [3] (substance 1 mg/l) stood at 28.0 ± 1.5 IU/3 × 10^4 lymph./ml; in data set [3] (substance 10 mg/l), 45 ± 1.2 IU/3 × 10^4 lymph./ml; in data set [3] (substance 100 mg/l) it was 97.5 ± 1.8 IU/3 × 10^4 lymph./ml. Moreover, the “% of inhibition of platelet aggregation” value in data set [4] is 35.8 ± 3.2%. In data set [5], the “Maximal tolerable dose, concentration of test substances” value was determined as 300 mg/kg. The “IC50, suppressing chemiluminescence by 50%” value in data set [6] stood at 9.99 µg/mL (≈ 37.9 µM). In data set [7] (Vero cells, 36 hours, cell control 10000), the “Quantity of the unchanged cells (number of cells in 100 visual fields)” value was determined as 5000. In addition, the “percentage of protection of cells from virus” value in data set [7] (compared to the control of cell culture) is “(50%)”.
